# Earlier results in PMC8273902 (Drug Design, Development and Therapy, 2021).
# Read-outs that look alike come from different tables or passages of the source.
# Details: humans
smiles,measurement,setting,value
"CN1CC(=O)N2[C@H](c3ccc4c(c3)OCO4)c3[nH]c4ccccc4c3C[C@@H]2C1=O [Tadalafil, tadalafil]",AUC0-t,20 mg,8066 (20 mg) h·ng/mL
same,CL/F,20 mg,2.5 (20 mg) L/h
same,Cmax,20 mg,378 (20 mg) ng/mL
same,Dose linearity,,Linear
same,Food effect on PK properties,,No significant effect
same,Tmax,,2 (0.5–6) h
same,Vd/F,,60 to 70 L
same,Food effect on PK properties,listed as tadalafil,not affected by food
"CCCc1nn(C)c2c(=O)[nH]c(-c3cc(S(=O)(=O)N4CCN(C)CC4)ccc3OCC)nc12 [Sildenafil, sildenafil]",AUC0-t,100 mg,1685 (100 mg) h·ng/mL
same,Cmax,100 mg,560 (100 mg) ng/mL
same,CL,"CL, 50 mg, intravenous","41 (CL, 50 mg, intravenous) L/h"
same,Food effect: reduction of AUC (systemic exposure),high-fat meal,11%
same,Tmax,,1 (0.5–2) h
same,Vd/F,,>310 L
same,t1/2,,3 to 5 h
